Assay results as given in paper PMC3557166, “'Le Rouge et le Noir': A decline in flavone formation correlates with the rare color of black dahlia (Dahlia variabilis hort.) flowers” (BMC Plant Biology, 2012).
Residue numbers refer to the chain shown, from its start.

How the values were obtained:
[1] = target: T1, FNS II (cv. Aurora's Kiss, GQ489010) (Dahlia pinnata, UniProt G3BGL8); assay: […]-flavanone conversion to flavone, TLC radioscan, recombinant yeast preparation; assay type: biochemical; conditions: NADPH; labelled compound
T1 construct: full-length ORF in pYES2.1/V5-His-TOPO, expressed in S. cerevisiae INVSc1
T1 sequence (G3BGL8 1-513): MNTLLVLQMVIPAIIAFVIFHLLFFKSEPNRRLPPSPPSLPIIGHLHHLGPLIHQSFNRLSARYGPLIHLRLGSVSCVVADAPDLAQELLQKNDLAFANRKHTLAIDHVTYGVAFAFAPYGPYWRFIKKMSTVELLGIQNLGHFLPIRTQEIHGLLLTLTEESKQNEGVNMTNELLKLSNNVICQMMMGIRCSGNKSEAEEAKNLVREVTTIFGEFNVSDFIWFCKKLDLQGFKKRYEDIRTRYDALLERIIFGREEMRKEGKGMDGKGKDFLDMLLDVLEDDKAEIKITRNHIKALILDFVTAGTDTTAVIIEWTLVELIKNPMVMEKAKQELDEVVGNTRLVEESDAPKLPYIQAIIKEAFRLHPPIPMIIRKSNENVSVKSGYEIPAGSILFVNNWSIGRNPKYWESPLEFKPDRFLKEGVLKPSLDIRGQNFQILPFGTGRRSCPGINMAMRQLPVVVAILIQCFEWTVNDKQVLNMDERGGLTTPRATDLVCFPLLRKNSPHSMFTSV

[2] = target: T2, FNS II (cv. Alva's Supreme, GQ479807) (Dahlia pinnata, UniProt G8Z370); assay: as above; assay type: biochemical; conditions: NADPH; labelled compound
T2 construct: full-length ORF in pYES2.1/V5-His-TOPO, expressed in S. cerevisiae INVSc1
T2 sequence (G8Z370 1-514): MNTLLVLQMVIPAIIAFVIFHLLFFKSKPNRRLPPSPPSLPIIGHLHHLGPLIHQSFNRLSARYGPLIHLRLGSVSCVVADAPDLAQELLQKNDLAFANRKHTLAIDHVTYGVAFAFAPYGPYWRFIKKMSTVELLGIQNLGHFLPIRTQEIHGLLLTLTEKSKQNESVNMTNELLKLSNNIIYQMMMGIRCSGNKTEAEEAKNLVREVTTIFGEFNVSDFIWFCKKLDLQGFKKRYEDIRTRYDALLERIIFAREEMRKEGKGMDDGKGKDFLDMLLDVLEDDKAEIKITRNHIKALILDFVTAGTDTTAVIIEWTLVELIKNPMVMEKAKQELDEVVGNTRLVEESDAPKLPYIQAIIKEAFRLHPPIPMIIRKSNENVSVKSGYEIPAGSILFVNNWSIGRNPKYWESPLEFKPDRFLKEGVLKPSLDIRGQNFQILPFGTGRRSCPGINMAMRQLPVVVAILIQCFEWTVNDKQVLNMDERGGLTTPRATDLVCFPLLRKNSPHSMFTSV

[3] = target: T3, FNS II (cv. Chat Noir, GQ489008) (Dahlia pinnata, UniProt G3BGL6); assay: as above; assay type: biochemical; conditions: NADPH; labelled compound
T3 construct: full-length ORF in pYES2.1/V5-His-TOPO, expressed in S. cerevisiae INVSc1
T3 sequence (G3BGL6 1-514): T2 sequence (G8Z370 1-514) with I11V, P83L, Y184C, F499L, L501S

[4] = target: T4, FNS II (cv. Rubens, GQ479809) (Dahlia pinnata, UniProt G8Z372); assay: as above; assay type: biochemical; conditions: NADPH; labelled compound
T4 construct: full-length ORF in pYES2.1/V5-His-TOPO, expressed in S. cerevisiae INVSc1
T4 sequence (G8Z372 1-513): T1 sequence (G3BGL8 1-513) with F24V, E162K, G168S, K421E, D482N, T489A, S512L

[5] = target: T5, FNS II (cv. Feuerschein, GQ479806) (Dahlia pinnata, UniProt G8Z369); assay: as above; assay type: biochemical; conditions: NADPH; labelled compound
T5 construct: gene DvFNS1; full-length ORF in pYES2.1/V5-His-TOPO, expressed in S. cerevisiae INVSc1
T5 sequence (G8Z369 1-514): T2 sequence (G8Z370 1-514) with Y184C, D266E

[6] = target: T6, FNS II (cv. White Alva, GQ489011) (Dahlia pinnata, UniProt G3BGL9); assay: as above; assay type: biochemical; conditions: NADPH; labelled compound
T6 construct: full-length ORF in pYES2.1/V5-His-TOPO, expressed in S. cerevisiae INVSc1
T6 sequence (G3BGL9 1-513): T1 sequence (G3BGL8 1-513) with I19L, E28K, A80V, L157Q, E162K, G168S, F224C, V462I

[7] = tested on: T7, recombinant FNS II (cv. Rubens GQ479808 and cv. Chat Noir GQ489009); assay: […]-flavanone conversion to apigenin, TLC radioscan, recombinant yeast preparation; assay type: biochemical, Dahlia pinnata; conditions: NADPH; pH optimum 6.50; 25-30°C optimum; labelled compound; clone (GQ479808 or GQ489009) not told; read-out: apparent Km
T7 construct: full-length ORF in pYES2.1/V5-His-TOPO, expressed in S. cerevisiae INVSc1

[8] = tested on: T7, recombinant FNS II (cv. Rubens GQ479808 and cv. Chat Noir GQ489009); assay: […]-flavanone conversion to luteolin, TLC radioscan, recombinant yeast preparation; assay type: biochemical, Dahlia pinnata; conditions: NADPH; pH optimum 7.50; 25-30°C optimum; labelled compound; clone (GQ479808 or GQ489009) not told; read-out: apparent Km

SMILES	14C-flavanone conversion to flavone, TLC radioscan, recombinant yeast preparatio [1]	14C-flavanone conversion to flavone, TLC radioscan, recombinant yeast preparatio [2]	14C-flavanone conversion to flavone, TLC radioscan, recombinant yeast preparatio [3]	14C-flavanone conversion to flavone, TLC radioscan, recombinant yeast preparatio [4]	14C-flavanone conversion to flavone, TLC radioscan, recombinant yeast preparatio [5]	14C-flavanone conversion to flavone, TLC radioscan, recombinant yeast preparatio [6]	Km [7] [µM]	Km [8] [µM]
O=C1C[C@@H](c2ccc(O)cc2)Oc2cc(O)cc(O)c21 [naringenin]	formation of apigenin and luteolin from naringenin and eriodictyol, respectively	formation of apigenin and luteolin from naringenin and eriodictyol, respectively	formation of apigenin and luteolin from naringenin and eriodictyol, respectively	formation of apigenin and luteolin from naringenin and eriodictyol, respectively	formation of apigenin and luteolin from naringenin and eriodictyol, respectively	formation of apigenin and luteolin from naringenin and eriodictyol, respectively	3.86	
O=C1C[C@@H](c2ccc(O)c(O)c2)Oc2cc(O)cc(O)c21 [eriodictyol]	formation of apigenin and luteolin from naringenin and eriodictyol, respectively	formation of apigenin and luteolin from naringenin and eriodictyol, respectively	formation of apigenin and luteolin from naringenin and eriodictyol, respectively	formation of apigenin and luteolin from naringenin and eriodictyol, respectively	formation of apigenin and luteolin from naringenin and eriodictyol, respectively	formation of apigenin and luteolin from naringenin and eriodictyol, respectively		4.2
